# Laboratory results taken from patent US8828988B2 (Tetraphase Pharmaceuticals, Inc., priority 2009, dated 2014).
# Like-named read-outs stand apart in the source and are kept apart here.
# Tests used:
# [1] = system: Staphylococcus aureus SA158, tetracycline-resistant tet(K); test: MIC assay, SA158; assay type: cell-based; conditions: Table 8, read-out: MIC S. aureus tetK
# [2] = system: Streptococcus pneumoniae SP160, tetracycline-resistant, tet(M); test: MIC assay, SP160; assay type: cell-based; conditions: Table 8, read-out: MIC S. pneumoniae tetM
# [3] = system: Escherichia coli EC155, tetracycline-resistant, tet(A); test: MIC assay, EC155; assay type: cell-based; conditions: Table 8, read-out: MIC E. coli tetA
# [4] = system: tet(K) strains of S. aureus; test: MIC, CLSI methodology, recent clinical isolates (Example 21); assay type: cell-based; conditions: Staphylococcus aureus, read-out: MIC against tet(K) strains of S. aureus
# Procedure: (§1) The assays were run as follows.
# (§2) The antibacterial activities of Compounds MIC values were determined according to CLSI methodology. Recent clinical isolates were obtained from Eurofins-Medinet. Antibiotics were obtained from standard commercial sources.
# [5] = system: tet(M) strains of S. aureus; test: as above; assay type: cell-based; conditions: Staphylococcus aureus, read-out: MIC against tet(M) strains of S. aureus
# Procedure: as §1, §2
# [6] = system: tet(M) and tet(S) strains of E. faecalis; test: as above; assay type: cell-based; conditions: Enterococcus faecalis, read-out: MIC against tet(M) and tet(S) strains of E. faecalis
# Procedure: as §1, §2
# [7] = system: tet(M) strains of S. pneumoniae; test: as above; assay type: cell-based; conditions: Streptococcus pneumoniae, read-out: MIC against tet(M) strains of S. pneumoniae
# Procedure: as §1, §2
# [8] = system: Streptococcus pneumoniae SP106, ATCC 49619; test: MIC assay, SP106; assay type: cell-based; conditions: ATCC49619, Table 8, read-out: MIC S. pneumoniae ATCC 49619
# [9] = system: S. pneumoniae clinical isolates; test: MIC50, MIC90 and MIC range, panel of clinical isolates (Example 20); assay type: cell-based; conditions: 19 isolates, in µg/mL
# Procedure: as §1
# (§3) Both values, as well as the MIC range (the lowest and highest MIC value observed for a collection of organisms), were determined for the isolates listed in Table 3.
# [10] = system: S. aureus clinical isolates; test: as above; assay type: cell-based; conditions: MRSA, 30 isolates; in µg/mL
# Procedure: as §1, §3
# [11] = system: E. faecalis clinical isolates; test: as above; assay type: cell-based; conditions: 24 isolates, in µg/mL
# Procedure: as §1, §3
# [12] = system: E. coli DH10B(pBAD-tetK), expressing tet(K); test: MIC against recombinant E. coli expressing tet(K); assay type: cell-based; conditions: for MIC: Escherichia coli
# From the text: (§4) Constructs were transformed into E. coli DH10B for expression. Recombinant strains were pre-induced under optimized conditions with L-arabinose prior to use as inocula in CLSI standardized MIC assays.
# [13] = system: E. coli S30 extract system, coupled in vitro transcription/translation, firefly luciferase readout; test: In vitro transcription/translation (TnT) assay; assay type: biochemical
# [14] = system: Enterococcus faecalis EF103, ATCC 29212; test: MIC assay, EF103; assay type: cell-based; conditions: Enterococcus faecalis, ATCC29212; Table 8; read-out: MIC E. faecalis ATCC 29212
# [15] = system: Enterococcus faecalis EF159, tetracycline-resistant, tet(M); test: MIC assay, EF159; assay type: cell-based; conditions: Table 8, read-out: MIC E. faecalis tetM
# [16] = system: Staphylococcus aureus SA161, HA-MRSA, tetracycline-resistant, tet(M); test: MIC assay, SA161; assay type: cell-based; conditions: Table 8, read-out: MIC S. aureus MRSA, tetM
# [17] = system: Escherichia coli EC107, ATCC 25922; test: MIC assay, EC107; assay type: cell-based; conditions: ATCC25922, Table 8, read-out: MIC E. coli ATCC 25922
# [18] = system: E. coli DH10B(pBAD-tetM), expressing tet(M); test: MIC against recombinant E. coli expressing tet(M); assay type: cell-based; conditions: for MIC: Escherichia coli
# From the text: as §4
# [19] = system: Staphylococcus aureus SA101, ATCC 29213, MSSA; test: MIC assay, SA101; assay type: cell-based; conditions: Table 8, read-out: MIC S. aureus ATCC 29213
compound,measurement,setting,value
CN(C)[C@@H]1C(O)=C(C(N)=O)C(=O)[C@@]2(O)C(O)=C3C(=O)c4c(O)c(NCC(C)(C)CN5CCCC5)nc(Cl)c4C[C@H]3C[C@@H]12 [Compound 108],MIC,[1],0.13 µg/mL
same,MIC,[2],0.25 µg/mL
same,MIC,[3],8 µg/mL
same,MIC,[4],≤ 1 µg/mL
same,MIC,[5],≤ 8 µg/mL
same,MIC,[6],≤ 4 µg/mL
same,MIC,[7],≤ 0.25 µg/mL
same,MIC,[8],0.031 µg/mL
same,MIC Range,[9],<=0.016-0.13
same,MIC Range,[10],0.5-8
same,MIC Range,[11],0.063-4
same,MIC,"[12]; read-out: MIC, TetK Induced",2 µg/mL
same,MIC,"[12]; read-out: MIC, Uninduced",4 µg/mL
same,"MIC ratio, TetK induced to uninduced",[12]; ratio of TetK induced to uninduced MIC,0.5
same,Effect of expression of (tet)K on activity,[12]; result in words,unaffected
same,TnT IC50,[13],0.6 µg/mL
same,"IC50, in vitro transcription/translation system","[13]; E. coli S30 extract, luciferase readout",0.62 µg/mL
same,MIC,[14],0.5 µg/mL
same,MIC,[15],2 µg/mL
same,MIC,[16],2 µg/mL
same,MIC,[17],2 µg/mL
same,MIC,"[18]; read-out: MIC, TetM induced",2 µg/mL
same,MIC,"[18]; read-out: MIC, Uninduced",2 µg/mL
same,Ratio (TetM induced / Uninduced),[18]; ratio of MICs,1
same,Effect of expression of (tet)M on activity,[18]; result in words,minimally affected
same,MIC,[19],0.25 µg/mL
